# What was measured:
# [1] = test system: SARS-CoV-2 (hCoV-19/Australia/VIC01/2020); experiment: SARS-CoV-2 microplaque inhibition assay in Vero-E6 cells; format: cell-based; settings: for SARS-CoV-2 Selectivity Indices, Group / SARS-CoV-2 Selectivity Index (SI): SI, IC50 (μM)/IC50 (μM), HEK293 cytotoxicity; for SARS-CoV-2 Selectivity Indices, Group: Alkyl Amidines and NH Pyrroles; for SARS-CoV-2 Selectivity Index (SI): numeric value; for IC50: Severe acute respiratory syndrome coronavirus 2, Vero C1008, plaque inhibition, Vero-E6 cells, read-out: IC50 SARS-CoV-2
# [2] = test system: Candida glabrata (ACPF3309); settings: for MIC99: Nakaseomyces glabratus, read-out: MIC99 Candida glabrata; for C. glabrata Selectivity Indices, Group: SI, IC50 (μM)/MIC99 (μg/mL), HEK293 cytotoxicity, Alkyl Amidines and NH Pyrroles
# T. equiperdum = experiment: Resazurin-based (Alamar blue) drug sensitivity assay; settings: Trypanosoma equiperdum, read-out: IC50 T. equiperdum
# [3] = test system: Rhizopus arrhizus (NEQAS12.35321); settings: read-out: MIC99 Rhizopus arrhizus
# [4] = test system: PolyAU double stranded RNA; experiment: Fluorescence intercalator displacement (FID) assay, SYBR-safe probe; settings: 20 μM compound, 30° C., lower % = stronger binding
# Summary of the method: (§1)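 Compound at 20 μM mixed with 3.76 ng/mL polyAU dsRNA or salmon genomic dsDNA and 12500-fold diluted SybrSafe in 1 mM phosphate buffer pH 7.4, then heated to 30 °C and fluorescence read. Reduction is expressed as normalised %, with nucleic acid plus probe as maximum and probe alone as minimum.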
# [5] = test system: Genomic double stranded DNA (salmon); experiment: as above; settings: 20 μM compound, 30° C., lower % = stronger binding
# Summary of the method: as §1
# [6] = test system: Staphylococcus aureus (ATCC 43300); experiment: Antibacterial MIC, broth microdilution (CLSI); format: cell-based; settings: for S. aureus Selectivity Indices, Group: Alkyl Amidines and NH Pyrroles; for MIC80: Staphylococcus aureus, ATCC43300, read-out: MIC80 S. aureus
# Candida auris (H.17.157) = settings: for MIC99: Candidozyma auris, read-out: MIC99 Candida auris; for C. auris Selectivity Indices, Group: Alkyl Amidines and NH Pyrroles
# T. evansi AntTat 3/3 = experiment: Resazurin-based (Alamar blue) drug sensitivity assay; settings: read-out: IC50 T. evansi
# Method: A detailed description of the procedure for evaluating activity against trypanosomes, using an Alamar Blue (resazurin) assay, is described below.
# The bloodstream form (BSF) T. b. brucei s427 (see De Koning, H. P. et al., Mol. Biochem. Parasitol. 2000, 106, 181-185), T. evansi AntTat 3/3 (see Dean, S. et al., Proc. Natl. Acad. Sci. USA, 2013, 110, 14741-14746), and T. equiperdum (see Stewart, M. L. et al., Eukaryot. Cell, 2010, 9, 336-343) were cultured in HMI-9 medium (Life Technologies, Paisley, United Kingdom) supplemented with 10% heat inactivated Foetal Bovine Serum (FBS (PAA Laboratories Linz, Austria)), 14 μL/L β-mercaptoethanol (BDH, Dorset, UK), and 3.0 g/L NaHCO3 (Sigma-Aldrich) and adjusted to pH 7.4. These cell lines were maintained at 37° C. in a humidified, 5% CO2 environment.
# A resazurin-based (Alamar blue) drug sensitivity assay was used to assess and compare the activity of standard trypanocides in the different cell lines investigated (see Gould, M. K. et al., Anal. Biochem., 2008, 382, 87-93). Briefly, 23 doubling dilutions of the test compound of the invention, starting at 100 μM, and a compound-free control were prepared in 100 μL medium in a 96-well white plate (Greiner Bio-one, Frickenhausen, Germany). The cells were adjusted to 2×10^4 cells/mL for T. b. brucei and T. equiperdum; 4×10^4 cells/mL for T. evansi; and 5×10^5 cells/mL for T. congolense in the appropriate medium. 100 μL of the adjusted cells was then added to the wells containing drug dilutions and incubated for 48 h under respective culture condition. Thereafter, 20 μL of 125 mg/mL resazurin sodium dye was added, and the plate was incubated for a further 24 h.
# [7] = test system: Enterococcus faecalis (ATCC 51299); experiment: Antibacterial MIC, broth microdilution (CLSI); format: cell-based; settings: for MIC80: Enterococcus faecalis, ATCC51299, read-out: MIC80 E. faecalis
# [8] = test system: Escherichia coli (ATCC 25922); experiment: Antibacterial MIC, broth microdilution (CLSI); format: cell-based; settings: Escherichia coli, ATCC25922; read-out: MIC80 E. coli
# [9] = test system: A. fumigatus A1160 (MFIG001); settings: Aspergillus fumigatus, read-out: MIC99 A. fumigatus A1160
# C. neoformans (F10025) = settings: Cryptococcus neoformans, read-out: MIC99 C. neoformans
# Method: The Minimum Inhibitory Concentration (MIC, at 99% inhibition) of the compounds was determined using the broth microdilution method as recommended by EUCAST (EUCAST Definitive Document E.DEF 9.3.2, Method for the determination of broth dilution minimum inhibitory concentrations of antifungal agents for conidia forming moulds and EUCAST Definitive Document E.DEF 7.3.2 Method for the determination of broth dilution minimum inhibitory concentrations of antifungal agents for yeasts).
# Influenza (H1N1) = experiment: Accelerated Viral Neuraminidase Inhibition Assay (AVINA), A549 cells; format: cell-based; settings: Influenza A virus, 72 h
# [10] = test system: Human rhinovirus (HRV-14); experiment: Viral ToxGlo assay, Hela Ohio cells; format: cell-based; settings: M-HeLa, 72 h
# [11] = SI, IC50 (μM)/MIC80 (μM), HEK293 cytotoxicity
# [12] = SI, IC50 (μM)/MIC99 (μg/mL), HEK293 cytotoxicity
Compound,"SARS-CoV-2 Selectivity Indices, Group [1]",SARS-CoV-2 Selectivity Index (SI) [1],IC50 [1] [nM],MIC99 [2] [µg/mL],"C. glabrata Selectivity Indices, Group [2]",IC50 (T. equiperdum) [nM],MIC99 [3] [µg/mL],% Normalised Fluorescence with polyAU RNA [4] [%],% Normalised Fluorescence with gDNA [5] [%],"S. aureus Selectivity Indices, Group [6, 11]",MIC80 [6] [µM],MIC99 (Candida auris (H.17.157)) [µg/mL],"C. auris Selectivity Indices, Group (Candida auris (H.17.157); [12])",IC50 (T. evansi AntTat 3/3) [nM],MIC80 [7] [µM],MIC80 [8] [µM],MIC99 [9] [µg/mL],MIC99 (C. neoformans (F10025)) [µg/mL],inhibition at 20 µM (Influenza (H1N1)) [%],inhibition at 20 µM [10] [%],other results
"CN(C)c1ccc(/C=C/c2ccc(C(=O)Nc3cc(C(=O)Nc4c[nH]c(C(=O)NCCC(=N)N)c4)n(C)c3)cn2)cc1 [IIIa7, (E)-N-(5-((5-((3-amino-3-iminopropyl)carbamoyl)-1H-pyrrol-3-yl)carbamoyl)-1-methyl-1H-pyrrol-3-yl)-6-(4-(dimethylamino)styryl)nicotinamide]",C (Group C: 10 < SI <= 25),24,< 2000,< 5,B (Group B: 12 < SI <= 20),> 1000,5 to 25,20,13,D (D: SI > 10),< 5,5 to 25,C (Group C 1 < SI <= 3),> 1000,5 to 25,25 to 100,5 to 25,< 5,,,"S. aureus Selectivity Index (SI) ([6]; SI, IC50 (μM)/MIC80 (μM), HEK293 cytotoxicity, numeric value): 14"
"CN(C)c1ccc(/C=C/c2ccc(C(=O)Nc3c[nH]c(C(=O)Nc4c[nH]c(C(=O)NCCC(=N)N)c4)c3)cn2)cc1 [IIIa9, (E)-N-(5-((5-((3-amino-3-iminopropyl)carbamoyl)-1H-pyrrol-3-yl)carbamoyl)-1H-pyrrol-3-yl)-6-(4-(dimethylamino)styryl)nicotinamide]",D (Group D: SI > 25),33,< 2000,< 5,C (Group C 20 < SI <= 50),> 1000,5 to 25,24,16,C (Group C: 5 < SI <= 10),5 to 25,5 to 25,D (Group D SI > 3),100 to 1000,5 to 25,25 to 100,5 to 25,< 5,10 to 25,25 to 50,"C. auris Selectivity Index (SI) (Candida auris (H.17.157); SI, IC50 (μM)/MIC99 (μg/mL), HEK293 cytotoxicity, numeric value): 6; E. faecalis Selectivity Indices, Group ([7]; SI, IC50 (μM)/MIC80 (μM), HEK293 cytotoxicity, Alkyl Amidines and NH Pyrroles): C (Group C: 5 < SI <= 10)"
"CN(C)c1ccc(/C=C/c2ccc(C(=O)Nc3c[nH]c(C(=O)Nc4c[nH]c(C(=O)NCCN5CCOCC5)c4)c3)cn2)cc1 [IIIb7, (E)-6-(4-(dimethylamino)styryl)-N-(5-((5-((2-morpholinoethyl)carbamoyl)-1H-pyrrol-3-yl)carbamoyl)-1H-pyrrol-3-yl)nicotinamide]",,,,,,,,44,63,B (Group B: 3 < SI <= 5),5 to 25,,,,> 100,> 100,,,,10 to 25,
"Cn1cc(NC(=O)c2cc(NC(=O)c3ccc(/C=C/c4cnc5ccccc5c4)cc3)c[nH]2)cc1C(=O)NCCN1CCOCC1 [IIIb8, (E)-1-methyl-N-(2-morpholinoethyl)-4-(4-(4-(2-(quinolin-3-yl)vinyl)benzamido)-1H-pyrrole-2-carboxamido)-1H-pyrrole-2-carboxamide]",,,,,,< 10,,26,37,,< 5,,,10 to 100,> 100,> 100,,,> 50,,
